The values that follow come from US11224601B1, “Compounds that inhibits MCL-1 protein” (priority 2017, dated 2022).

Structures are written as SMILES.

The test system of the first test is OPM-2 human multiple myeloma cell line. Briefly: Cell Viability Assay (OPM-2 10 FBS), CellTiter-Glo. In kind it is cell-based. As to conditions: Homo sapiens, OPM-2, 16 h, read-out: OPM-2 10% FBS IC50 IP (μM), OPM-2 cells, 10% FBS, 16 h, CellTiter-Glo. The procedure: Cell Viability Assay (OPM-2 10 FBS)
The human multiple myeloma cell line, OPM-2, was cultured in complete growth medium containing RPMI 1640 and 10% fetal bovine serum (FBS). Cells were seeded into 384-well plates at 3000 cells/well density in complete growth medium containing 10% FBS, and incubated for 16 h with serially diluted test compounds in a 37° C. incubator with 5% CO2. Cell viability was tested using CellTiter-Glo® assay (Promega, Madison, Wis.) according to the manufacturer recommendations. Luminescence was determined using an EnVision® Multilabel plate reader 25 min after the addition of detection reagent. IC50 values were then calculated with Xlfit using a logistical 4-parameter fit model in GraphPad Prism (GraphPad Software, San Diego, Calif.) or in Genedata Screener® (Genedata, Basel, Switzerland).
Regarding `CO[C@@]1(CN2CCN3CCC(F)(F)CC3C2)/C=C/C[C@H](C)[C@@H](C)S(=O)(=O)NC(=O)c2ccc3c(c2)N(C[C@@H]2CC[C@H]21)C[C@@]1(CCCc2cc(Cl)ccc21)CO3` (mixture of isomers) [Example 273], the IC50 (commonly the concentration needed to halve the response being measured) came to 0.501 µM.

As to `CO[C@]1(CN2CC[C@@H]3CCCC[C@H]3C2)/C=C/C[C@H](C)[C@@H](C)S(=O)(=O)NC(=O)c2ccc3c(c2)N(C[C@@H]2CC[C@H]21)C[C@@]1(CCCc2cc(Cl)ccc21)CO3` (single isomer, unassigned) [Example 90], the IC50 came to 8.98 µM.

`C[C@@H]1[C@@H](C)C/C=C/[C@]2(CN3CCN(C)C[C@@H]3CO2)[C@@H]2CC[C@H]2CN2C[C@@]3(CCCc4cc(Cl)ccc43)COc3ccc(cc32)C(=O)NS1(=O)=O` (single isomer, unassigned) [Example 132]: the concentration for half-maximal inhibition (IC50) turned out to be 0.263 µM.

As to `CO[C@]1(CN2CCN3CCN(S(C)(=O)=O)C[C@@H]3C2)/C=C/C[C@H](C)[C@@H](C)S(=O)(=O)NC(=O)c2ccc3c(c2)N(C[C@@H]2CC[C@H]21)C[C@@]1(CCCc2cc(Cl)ccc21)CO3` (single isomer, unassigned) [Example 237], the IC50 was 0.064 µM.

On to `CO[C@@]1(CN2CCN([C@@H]3CCOC3)CC2)/C=C/C[C@H](C)[C@@H](C)S(=O)(=O)NC(=O)c2ccc3c(c2)N(C[C@@H]2CC[C@H]21)C[C@@]1(CCCc2cc(Cl)ccc21)CO3` (single isomer, unassigned) [Example 286], for which the IC50 worked out at 0.05 µM.

In the case of `CO[C@@]1(CN2CCN3CCC(F)(F)C[C@@H]3C2)/C=C/C[C@H](C)[C@@H](C)S(=O)(=O)NC(=O)c2ccc3c(c2)N(C[C@@H]2CC[C@H]21)C[C@@]1(CCCc2cc(Cl)ccc21)CO3` (single isomer, unassigned) [Example 288], the IC50 amounted to 0.652 µM.

With `CO[C@@]1(CN2CCN3CCC(F)(F)C[C@H]3C2)/C=C/C[C@H](C)[C@@H](C)S(=O)(=O)NC(=O)c2ccc3c(c2)N(C[C@@H]2CC[C@H]21)C[C@@]1(CCCc2cc(Cl)ccc21)CO3` (single isomer, unassigned) [Example 289], the IC50 is 0.131 µM.

As to `CO[C@@]1(CN2CCN3CCN(C(=O)CCS(=O)(=O)c4ccccc4)C[C@H]3C2)/C=C/C[C@H](C)[C@@H](C)S(=O)(=O)NC(=O)c2ccc3c(c2)N(C[C@@H]2CC[C@H]21)C[C@@]1(CCCc2cc(Cl)ccc21)CO3` (single isomer, unassigned) [Example 295], the IC50 is 0.104 µM.

Consider `CO[C@]1(CN2CCN3CCC(F)(F)C[C@H]3C2)/C=C/C[C@H](C)[C@@H](C)S(=O)(=O)NC(=O)c2ccc3c(c2)N(C[C@@H]2CC[C@H]21)C[C@@]1(CCCc2cc(Cl)ccc21)CO3` (single isomer, unassigned) [Example 299], for which the IC50 turned out to be 0.456 µM.

Regarding `CO[C@]1(CN2CC[C@H]3CCCC[C@@H]3C2)/C=C/C[C@H](C)[C@@H](C)S(=O)(=O)NC(=O)c2ccc3c(c2)N(C[C@@H]2CC[C@H]21)C[C@@]1(CCCc2cc(Cl)ccc21)CO3` (stereo in doubt) [Example 86], the IC50 came out at 7.95 µM.

Take `CO[C@@]1(CN2CCN3CCN(C)C[C@@H]3C2)/C=C/C[C@H](C)[C@@H](C)S(=O)(=O)NC(=O)c2ccc3c(c2)N(C[C@@H]2CC[C@H]21)C[C@@]1(CCCc2cc(Cl)ccc21)CO3` (stereo in doubt) [Example 210]: the IC50 was found to be 0.185 µM.

As for `CO[C@]1(CN2CCN3CCN(S(C)(=O)=O)C[C@@H]3C2)/C=C/C[C@H](C)[C@@H](C)S(=O)(=O)NC(=O)c2ccc3c(c2)N(C[C@@H]2CC[C@H]21)C[C@@]1(CCCc2cc(Cl)ccc21)CO3` (stereo in doubt) [Example 227], the IC50 was 0.131 µM.

Consider `C=CC(=O)N1CCN2CCN(C[C@]3(OC)/C=C/C[C@H](C)[C@@H](C)S(=O)(=O)NC(=O)c4ccc5c(c4)N(C[C@@H]4CC[C@H]43)C[C@@]3(CCCc4cc(Cl)ccc43)CO5)C[C@H]2C1` (stereo in doubt) [Example 234], for which the IC50 stood at 0.071 µM.

As for `CO[C@]1(CN2CCN3CCC(F)(F)C[C@@H]3C2)/C=C/C[C@H](C)[C@@H](C)S(=O)(=O)NC(=O)c2ccc3c(c2)N(C[C@@H]2CC[C@H]21)C[C@@]1(CCCc2cc(Cl)ccc21)CO3` (stereo in doubt) [Example 292], the IC50 was determined as 0.399 µM.

On to `CO[C@@]1(CN2CCCN(C(C)C)CC2)/C=C/C[C@H](C)[C@@H](C)S(=O)(=O)NC(=O)c2ccc3c(c2)N(C[C@@H]2CC[C@H]21)C[C@@]1(CCCc2cc(Cl)ccc21)CO3` (stereo in doubt) [Example 331], for which the IC50 came out at 0.23 µM.

Regarding `C[C@@H]1[C@@H](C)CCC[C@@](O)(CN2CCN3CCOC[C@@H]3C2)[C@@H]2CC[C@H]2CN2C[C@@]3(CCCc4cc(Cl)ccc43)COc3ccc(cc32)C(=O)NS1(=O)=O` [Example 7, (1S,3′R,6′R,7′S,11′S,12′R)-6-chloro-7′-((9aS)-hexahydropyrazino[2,1-c][1,4]oxazin-8(1H)-ylmethyl)-7′-hydroxy-11′,12′-dimethyl-3,4-dihydro-2H,15′H-spiro[naphthalene-1,22′-[20]oxa[13]thia[1,14]diazatetracyclo[14.7.2.0˜3,6˜.0˜19,24˜]pentacosa[16,18,24]trien]-15′-one 13′,13′-dioxide], the concentration for half-maximal inhibition (IC50) was found to be 0.025 µM.

With `CO[C@]1(CN2CCN(C(C)C)[C@H](C)C2)/C=C/C[C@H](C)[C@@H](C)S(=O)(=O)NC(=O)c2ccc3c(c2)N(C[C@@H]2CC[C@H]21)C[C@@]1(CCCc2cc(Cl)ccc21)CO3` [Example 8, (1S,3′R,6′R,7′R,8′E,11′S,12′R)-6-chloro-7′-methoxy-11′,12′-dimethyl-7′-(((3R)-3-methyl-4-(1-methylethyl)-1-piperazinyl)methyl)-3,4-dihydro-2H,15′H-spiro[naphthalene-1,22′-[20]oxa[13]thia[1,14]diazatetracyclo[14.7.2.0˜3,6˜.0˜19,24˜]pentacosa[8,16,18,24]tetraen]-15′-one 13′,13′-dioxide], the concentration for half-maximal inhibition (IC50) is 0.025 µM.

Regarding `CO[C@]1(CN2CCN3CCCC[C@@H]3C2)/C=C/C[C@H](C)[C@@H](C)S(=O)(=O)NC(=O)c2ccc3c(c2)N(C[C@@H]2CC[C@H]21)C[C@@]1(CCCc2cc(Cl)ccc21)CO3` [Example 10, (1S,3′R,6′R,7′R,8′E,11′S,12′R)-6-chloro-7′-methoxy-11′,12′-dimethyl-7′-((9aR)-octahydro-2H-pyrido[1,2-a]pyrazin-2-ylmethyl)-3,4-dihydro-2H,15′H-spiro[naphthalene-1,22′-[20]oxa[13]thia[1,14]diazatetracyclo [14.7.2.0˜3,6˜.0˜19,24˜]pentacosa[8,16,18,24]tetraen]-15′-one 13′,13′-dioxide], the IC50 was determined as 0.075 µM.

Regarding `CO[C@]1(CN2CCN3CCC[C@@H]3C2)/C=C/C[C@H](C)[C@@H](C)S(=O)(=O)NC(=O)c2ccc3c(c2)N(C[C@@H]2CC[C@H]21)C[C@@]1(CCCc2cc(Cl)ccc21)CO3` [Example 83], the IC50 was determined as 0.245 µM.

The test is the same for the next values; noted with them: read-out: OPM-2 10% FBS IC50 IP; OPM-2 cells, 10% FBS, 16 h, CellTiter-Glo.
`CO[C@]1(CN2CC[C@H]3CCCC[C@@H]3C2)/C=C/C[C@H](C)[C@@H](C)S(=O)(=O)NC(=O)c2ccc3c(c2)N(C[C@@H]2CC[C@H]21)C[C@@]1(CCCc2cc(Cl)ccc21)CO3` (single isomer, unassigned) [Example 89]: the IC50 was determined as 8.21 µM.

Regarding `CO[C@]1(CN2CCN3CCS(=O)(=O)C[C@@H]3C2)/C=C/C[C@H](C)[C@@H](C)S(=O)(=O)NC(=O)c2ccc3c(c2)N(C[C@@H]2CC[C@H]21)C[C@@]1(CCCc2cc(Cl)ccc21)CO3` (single isomer, unassigned) [Example 220], the IC50 stood at 0.042 µM.

Regarding `CO[C@]1(CN2CCN3CCS(=O)(=O)C[C@@H]3C2)/C=C/C[C@H](C)[C@@H](C)S(=O)(=O)NC(=O)c2ccc3c(c2)N(C[C@@H]2CC[C@H]21)C[C@@]1(CCCc2cc(Cl)ccc21)CO3` (single isomer, unassigned) [Example 221], the IC50 came out at 0.12 µM.

For `CO[C@@]1(CN2CCN3CCS(=O)(=O)C[C@@H]3C2)/C=C/C[C@H](C)[C@@H](C)S(=O)(=O)NC(=O)c2ccc3c(c2)N(C[C@@H]2CC[C@H]21)C[C@@]1(CCCc2cc(Cl)ccc21)CO3` (single isomer, unassigned) [Example 231], the IC50 was 0.098 µM.

`CO[C@@]1(CN2CCN3CCS(=O)(=O)C[C@@H]3C2)/C=C/C[C@H](C)[C@@H](C)S(=O)(=O)NC(=O)c2ccc3c(c2)N(C[C@@H]2CC[C@H]21)C[C@@]1(CCCc2cc(Cl)ccc21)CO3` (single isomer, unassigned) [Example 232]: the IC50 is 0.2 µM.

For `CO[C@]1(CN2CCN3CCN(S(C)(=O)=O)C[C@@H]3C2)/C=C/C[C@H](C)[C@@H](C)S(=O)(=O)NC(=O)c2ccc3c(c2)N(C[C@@H]2CC[C@H]21)C[C@@]1(CCCc2cc(Cl)ccc21)CO3` (single isomer, unassigned) [Example 238], the IC50 turned out to be 0.076 µM.

On to `CO[C@@]1(CN2CCN3CCN(C(=O)CCS(=O)(=O)c4ccccc4)C[C@@H]3C2)/C=C/C[C@H](C)[C@@H](C)S(=O)(=O)NC(=O)c2ccc3c(c2)N(C[C@@H]2CC[C@H]21)C[C@@]1(CCCc2cc(Cl)ccc21)CO3` (single isomer, unassigned) [Example 294], for which the IC50 worked out at 0.687 µM.

In the case of `CO[C@@]1(CN2CCN3CCN(C(=O)CCS(=O)(=O)c4ccccc4)C[C@@H]3C2)/C=C/C[C@H](C)[C@@H](C)S(=O)(=O)NC(=O)c2ccc3c(c2)N(C[C@@H]2CC[C@H]21)C[C@@]1(CCCc2cc(Cl)ccc21)CO3` (stereo in doubt) [Example 233], the IC50 was determined as 0.202 µM.
